Experimental data: patent US12440581B2, “Fluorophores for super-resolution imaging” (HOWARD HUGHES MEDICAL INSTITUTE, priority 2019, dated 2025)

How the values were obtained:
[1] = Quantum yield determination; format: physicochemical; details: absolute, integrating sphere
Protocol: Quantum yield determination. All reported absolute fluorescence quantum yield values (Φ) were measured in the laboratory under identical conditions using a Quantaurus-QY spectrometer (model C11374, Hamamatsu). This instrument uses an integrating sphere to determine photons absorbed and emitted by a sample. Measurements were carried out using dilute samples (A<0.1) and self-absorption corrections were performed using the instrument software^57 when appropriate. Reported values are averages (n=3).

histone H2B-HaloTag = assay: Comparison of HaloTag ligands 7HTL and 10HTL in live cells (no-wash); format: cell-based; details: 500 nM, 30 min
Description: Comparison of HaloTag ligands 7HTL and 10HTL in live cells.

[2] = Determination KL-Z and εmax; format: physicochemical
Protocol: Determination KL-Z and εmax. The lactone-zwitterion equilibrium constant (KL-Z) was calculated as described previously^18,41 using equation 1: KL-Z=(εdw/εmax)/(1−εdw/εmax) (1) • where εdw is the extinction coefficient of the dyes in a 1:1 (v/v) dioxane:water solvent mixture containing 0.01% (v/v) triethylamine; the dioxane-water mixture was chosen to give a large range of KL-Z values and the triethylamine additive ensures the rhodamines are in the net neutral form. The emax (maximal extinction coefficient) values were measured in 0.1% (v/v) trifluoroacetic acid (TFA) in 2,2,2-trifluoroethanol (TFE) for rhodaminc 10, and 0.1% (v/v) TFA in ethanol for the Si-rhodamine 8.
Instead, a solution of strong acid in alcoholic solvents was used (e.g., TFA in […]) to shift the equilibrium to the open form by protonation of the o-carboxyl group. This decades-old procedure^36 allows estimation of the maximal extinction coefficient (εmax) and determination of KL-Z=(ε/εmax)/(1−ε/εmax).
The KL-Z was determined using ε values measured in 1:1 dioxane:water to ensure a broad distribution of values.^18 An inverse relationship was observed between KL-Z and fluorogenicity, showing that KL-Z is sufficient to accurately predict the increase in fluorescence of rhodamine dyes. This increase in fluorescence is primarily driven by the increase in absorption; chromogenicity is correlated both with KL-Z and fluorogenicity (FIGS. 11E-11J). Importantly, this trend holds across different rhodamine scaffolds including Si-rhodamines (1-3), carborhodamines (4-5), and classic, oxygen-containing rhodamines (6-7, FIG. 1C). Based on this inverse relationship a simple rubric was determined: a dye with KL-Z<10^−2 should yield a HaloTag ligand with at least 10-fold fluorogenicity (FIG. 1E).

[3] = UV-vis and fluorescence spectroscopy; format: physicochemical; details: 10 mM HEPES, pH 7.3
Protocol: UV-vis and fluorescence spectroscopy. […] Spectroscopy was performed using 1-cm path length, 3.5-mL quartz cuvettes or 1-cm path length, 1.0-ml quartz microcuvettes (Starna Cells). All measurements were taken at ambient temperature (22±2° C.). Absorption spectra were recorded on a Cary Model 100 spectrometer (Agilent). Fluorescence spectra were recorded on a Cary Eclipse fluorometer (Varian). Maximum absorption wavelength (λabs), extinction coefficient (εw), and maximum emission wavelength (λem) were taken in 10 mM HEPES, pH 7.3 buffer unless otherwise noted; reported values for ew are averages (n=3). Normalized spectra are shown for clarity.

microtubules = details: live-cell no-wash imaging
Protocol: Imaging was performed on a LSM880 confocal microscope (Zeiss) using the following configuration: excitation: 514 nm/emission: 526-615 nm (JF526); excitation: 594 nm/emission: 599-734 nm (JF585); excitation: 633 nm/emission: 638-759 nm (JF646 or SiR).

HaloTag protein = HaloTag protein (Rhodococcus rhodochrous, UniProt P0A3G2, A155T/A167V/A172T/A224E/C128F/C176G/D78G/E160K/E257K/H272N/K175M/K195N/L47V/L88M/N227D/P291S/S2A/S58T/T264A/Y273L/Y87F); assay: Increase in absorption of HaloTag ligands following attachment to HaloTag protein; format: biochemical; details: 5 μM ligand, 1.5 equiv HaloTag protein
Protocol: Measurement of increase in absorption of HaloTag ligands 1HTL-10HTL following attachment to HaloTag protein. HaloTag protein was prepared as a 100 μM solution in 75 mM NaCl, 50 mM TRIS·HCl, pH 7.4. Absorption measurements were performed in 1.0-mL quartz cuvettes. HaloTag ligands (5 μM) were dissolved in 10 mM HEPES, pH 7.3 containing 0.1 mg/mL CHAPS. An aliquot of HaloTag protein (75 μL, 7.5 μM, 1.5 equiv) or an equivalent volume of buffer (75 mM NaCl, 50 mM TRIS·HCl, pH 7.4) was added and the resulting mixture was incubated until a consistent absorption signal was observed (˜60 min). Absorption scans are averages (n=2).

histone H2B-SNAP-tag = assay: Comparison of SNAP ligands 7STL and 10STL in live cells (no-wash); format: cell-based; details: 1 μM, 1 h
Description: Comparison of SNAP ligands 7STL and 10STL in live cells.

HaloTag protein, sequence (P0A3G2 other isoform, or with tags, fused parts or gaps with the stated changes): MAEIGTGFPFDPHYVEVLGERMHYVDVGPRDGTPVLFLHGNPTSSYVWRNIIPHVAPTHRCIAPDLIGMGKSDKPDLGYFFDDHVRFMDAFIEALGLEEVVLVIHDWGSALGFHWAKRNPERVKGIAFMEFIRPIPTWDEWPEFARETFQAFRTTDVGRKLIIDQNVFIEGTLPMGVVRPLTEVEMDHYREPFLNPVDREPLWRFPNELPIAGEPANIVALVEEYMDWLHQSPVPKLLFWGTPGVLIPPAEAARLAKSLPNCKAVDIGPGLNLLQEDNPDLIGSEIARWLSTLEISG

## O=C([O-])c1ccccc1-c1c2cc(F)c(=[N+]3CC(F)(F)C3)cc-2oc2cc(N3CC(F)(F)C3)c(F)cc12 [dye 10, Janelia Fluor 526]
[1]
  ϕ (fluorescence quantum yield): 0.87
Histone H2B-HaloTag
  signal-to-background compared to JF525: superior signal-to-background
[2]; 0.1% TFA in TFE (rhodamine 10), 0.1% TFA in ethanol (Si-rhodamine 8)
  εmax: 118,000 M^−1cm^−1
[2]; 1:1 (v/v) dioxane:water, 0.01% triethylamine
  KL-Z (lactone-zwitterion equilibrium constant): 0.0050
[3]
  εw: 19,000 M^−1cm^−1
  λabs: 526 nm
  λem: 550 nm

## JF526-Taxol [10TXL]
microtubules
  performance relative to SiR-tubulin (1TXL): comparable performance

## O=C(NCCOCCOCCCCCCCl)c1ccc(C(=O)[O-])c(-c2c3cc(F)c(=[N+]4CC(F)(F)C4)cc-3oc3cc(N4CC(F)(F)C4)c(F)cc23)c1 [10HTL, JF526-HaloTag ligand]
HaloTag protein
  increase of absorbance upon conjugation to purified HaloTag protein: substantial increase

## Nc1nc(OCc2ccc(CNC(=O)c3ccc(C(=O)[O-])c(-c4c5cc(F)c(=[N+]6CC(F)(F)C6)cc-5oc5cc(N6CC(F)(F)C6)c(F)cc45)c3)cc2)c2nc[nH]c2n1 [10STL, JF526-SNAP-tag ligand]
Histone H2B-SNAP-tag
  signal-to-background compared to JF525: superior signal-to-background
